# Where a name gives a salt, the structure may show the parent alone.
# Target: purified human Factor XIa (Homo sapiens (Human), UniProt P03951)
# Assay: Factor XIa enzyme inhibition assay (chromogenic substrate S-2366)
# Type: biochemical
# Conditions: substrate S-2366, 50 mM HEPES pH 7.4
# Protocol: The effectiveness of compounds of the present invention as inhibitors of the coagulation Factors XIa, VIIa, IXa, Xa, XIIa, plasma kallikrein or thrombin, can be determined using a relevant purified serine protease, respectively, and an appropriate synthetic substrate. The rate of hydrolysis of the chromogenic or fluorogenic substrate by the relevant serine protease was measured both in the absence and presence of compounds of the present invention. Assays were conducted at room temperature or at 37° C. […] A decrease in the rate of absorbance or fluorescence change in the presence of inhibitor is indicative of enzyme inhibition. Such methods are known to one skilled in the art. The results of this assay are expressed as the inhibitory constant, Ki.
# Values of Ki were determined by allowing the protease to react with the substrate in the presence of the inhibitor. Reactions were allowed to go for periods of 20-180 minutes (depending on the protease) and the velocities (rate of absorbance or fluorescence change versus time) were measured. The following relationships were used to calculate Ki values: (vo−vs)/vs=I/(Ki(1+S/Km)) for a competitive inhibitor with one binding site; or vs/vo=A+((B−A)/(1+((IC50/(I))^n))); and Ki=IC50/(1+S/Km) for a competitive inhibitor where: […]
# Chain of purified human Factor XIa (P03951 388-625): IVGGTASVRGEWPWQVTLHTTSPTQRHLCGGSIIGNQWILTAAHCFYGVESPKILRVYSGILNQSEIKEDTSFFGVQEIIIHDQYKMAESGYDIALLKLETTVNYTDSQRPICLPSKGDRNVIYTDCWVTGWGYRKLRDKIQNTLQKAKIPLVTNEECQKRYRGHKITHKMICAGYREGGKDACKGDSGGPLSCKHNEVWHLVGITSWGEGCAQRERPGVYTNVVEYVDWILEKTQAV
# Chain of purified human Factor XIa (P03951 19-387 partner): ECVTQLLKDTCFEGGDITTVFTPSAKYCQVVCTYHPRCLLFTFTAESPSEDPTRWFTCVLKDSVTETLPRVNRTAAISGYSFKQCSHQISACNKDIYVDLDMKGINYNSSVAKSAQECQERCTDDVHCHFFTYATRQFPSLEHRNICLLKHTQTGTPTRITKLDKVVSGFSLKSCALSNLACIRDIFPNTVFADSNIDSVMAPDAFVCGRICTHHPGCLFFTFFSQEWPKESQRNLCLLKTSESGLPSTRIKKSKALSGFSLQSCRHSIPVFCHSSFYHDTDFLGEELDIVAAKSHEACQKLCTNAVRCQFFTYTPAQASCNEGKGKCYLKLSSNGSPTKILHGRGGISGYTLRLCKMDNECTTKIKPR
row,Compound,Ki
1,"COC(=O)Nc1ccc2c(c1)NC(=O)[C@H](C)CCCC(N1CC(=O)N(c3c(C(F)(F)F)ccc(Cl)c3F)CC1=O)c1cc-2ccn1 (single isomer, unassigned) [Example 37, TFA salt]",< 5 nM
2,"COC(=O)Nc1ccc2c(c1)NC(=O)[C@H](C)CCC[C@H](N1CCC(c3cccc(Cl)c3)CC1=O)c1cc-2ccn1 (single isomer, unassigned) [Example 152]",< 5 nM
3,"COC(=O)Nc1ccc2c(c1)N[C@@H](C(=O)OC)CCCC[C@H](N1CCC(c3cccc(Cl)c3)OC1=O)c1nc-2c[nH]1 (stereo partly drawn) [Example 5, Methyl (9R,14S)-14-(6-(3-chlorophenyl)-2-oxo-1,3-oxazinan-3-yl)-5-((methoxycarbonyl)amino)-8,16,18-triazatricyclo[13.2.1.0^2,7]octadeca-1(17),2,4,6,15(18)-pentaene-9-carboxylate]",12.2 nM
4,"C[C@@H]1CCC[C@H](N2CC[C@H](c3c(F)ccc(Cl)c3F)OC2=O)c2cc(ccn2)-c2cc(C(=O)O)ccc2NC1=O [Example 26, (10R,14S)-14-[(6R)-6-(3-chloro-2,6-difluorophenyl)-2-oxo-1,3-oxazinan-3-yl]-10-methyl-9-oxo-8,16-diazatricyclo[13.3.1.0^2,7]nonadeca-1(19),2,4,6,15,17-hexaene-4-carboxylic acid, TFA salt]",< 5 nM
5,COC(=O)Nc1ccc2c(c1)NC(=O)[C@H](C)CCC[C@H](N1CC[C@@H](c3nccc(Cl)c3F)N(C)C1=O)c1nc-2c[nH]1 [Example 71],330 nM
6,COC(=O)Nc1ccc2c(c1)NC(=O)[C@H](C)CCC[C@H](N1CC[C@H](c3nccc(Cl)c3F)N(C)C1=O)c1nc-2c[nH]1 [Example 72],28.8 nM

# Now from value to compound:
row,Ki,Compound
1,41.8 nM,"COC(=O)Nc1ccc2c(c1)N[C@@H](C(=O)OC)CCCC[C@H](N1CCC(c3cc(Cl)ccc3OC(F)F)OC1=O)c1nc-2c(C#N)[nH]1 (single isomer, unassigned) [Example 7]"
2,24.4 nM,"COC(=O)Nc1ccc2c(c1)NC(=O)CC/C=C/C[C@H](N1CCC(c3cc(Cl)ccn3)NC1=O)c1nc-2c[nH]1 (single isomer, unassigned) [Example 40]"
3,< 5 nM,"COC(=O)Nc1ccc2c(c1)NC(=O)[C@H](C)CCC[C@H](N1CCC(c3nccc(Cl)c3F)NC1=O)c1nc-2c[nH]1 (single isomer, unassigned) [Example 58]"
4,13.3 nM,"COC(=O)Nc1ccc2c(c1)N[C@@H](C(=O)OC)CCCC[C@H](N1CCC(c3cccc(Cl)c3)OC1=O)c1nc-2c(C#N)[nH]1 (single isomer, unassigned) [Example 79]"
5,1930 nM,"COC(=O)Nc1ccc2c(c1)NC(=O)CC/C=C/C[C@H](N1CCC(C)(c3c(F)ccc(Cl)c3F)OC1=O)c1nc-2c(Cl)[nH]1 (single isomer, unassigned) [Example 99]"
6,69.3 nM,"COC(=O)Nc1ccc2c(c1)NC(=O)[C@H](C)CCC[C@H](N1CCC(c3c(C(F)(F)F)ccc(Cl)c3F)OC1=O)c1cc-2ccn1 (single isomer, unassigned) [Example 133]"
7,9.48 nM,"COC(=O)Nc1ccc2c(c1)NC(=O)CCCC[C@H](N1CCC(c3cccc(Cl)c3)CC1=O)c1nc-2c[nH]1 (single isomer, unassigned) [Example 147]"
8,3400 nM,"COC(=O)Nc1ccc2c(c1)NC(=O)CCCC[C@H](N1CCC(c3cccc(Cl)c3)OC1=O)c1nc-2c[nH]1 (stereo partly drawn) [Example 4, Methyl ((14S)-14-(6-(3-chlorophenyl)-2-oxo-1,3-oxazinan-3-yl)-9-oxo-8,16,18-triazatricyclo[13.2.1.0^2,7]octadeca-1(17),2,4,6,15(18)-pentaen-5-yl)carbamate]"
9,< 5 nM,"COC(=O)Nc1ccc2c(c1)NC(=O)C(C)CCC[C@H](N1CC[C@H](c3c(F)ccc(Cl)c3F)OC1=O)c1cc-2cnn1 (stereo partly drawn) [Example 13, Methyl N-[(14S)-14-[(6R)-6-(3-chloro-2,6-difluorophenyl)-2-oxo-1,3-oxazinan-3-yl]-10-methyl-9-oxo-8,16,17-triazatricyclo[13.3.1.0^2,7]nonadeca-1(19),2(7),3,5,15,17-hexaen-5-yl]carbamate]"
10,6.83 nM,"COC(=O)Nc1ccc2c(c1)NC(=O)[C@H](C)CCC[C@H](N1CCC(c3c(Cl)ccc(Cl)c3F)NC1=O)c1nc-2c[nH]1 (stereo partly drawn) [Example 18, Methyl N-[(10R,14S)-14-[4-(3,6-dichloro-2-fluorophenyl)-2-oxo-1,3-diazinan-1-yl]-10-methyl-9-oxo-8,16,18-triazatricyclo[13.2.1.0^2,7]octadeca-1(17),2,4,6,15(18)-pentaen-5-yl]carbamate]"
11,7.46 nM,"COC(=O)Nc1ccc2c(c1)NC(=O)[C@H](C)CCC[C@H](N1CCN(c3cccc(Cl)c3F)CC1=O)c1cc-2ccn1 [Example 20, Methyl N-[(10R,14S)-14-[4-(3-chloro-2-fluorophenyl)-2-oxopiperazin-1-yl]-10-methyl-9-oxo-8,16-diazatricyclo[13.3.1.0^2,7]nonadeca-1(19),2(7),3,5,15,17-hexaen-5-yl]carbamate]"
12,< 5 nM,COC(=O)Nc1ccc2c(c1)NC(=O)[C@H](C)CCC[C@H](N1CC[C@@H](c3c(F)ccc(Cl)c3F)NC1=O)c1nc-2c[nH]1 [Example 70]
13,7.46 nM,COC(=O)Nc1ccc2c(c1)NC(=O)CC/C=C/C[C@H](N1CC[C@H](c3cc(Cl)ccc3OC(F)F)OC1=O)c1nc-2c[nH]1 [Example 77]
14,< 5 nM,COC(=O)Nc1ccc2c(c1)NC(=O)[C@H](C)CCC[C@H](N1CC[C@@H](c3c(F)ccc(Cl)c3F)OC1=O)c1cc-2ccn1 [Example 100]
15,9.6 nM,COC(=O)Nc1ccc2c(c1)NC(=O)[C@@H](C)CCC[C@H](N1CC[C@@H](c3c(F)ccc(Cl)c3F)OC1=O)c1ccnc-2c1 [Example 119]

# Same assay, conditions: substrate S-2366, 50 mM HEPES pH 7.4, TFA salt
row,Ki,Compound
1,2460 nM,"COC(=O)Nc1ccc2c(c1)NC(=O)CC/C=C/C[C@H](N1CCC(C)(c3c(F)ccc(Cl)c3F)OC1=O)c1nc-2c(Cl)[nH]1 (stereo partly drawn) [Example 32, Methyl N-[(12E,15S)-18-chloro-15-[6-(3-chloro-2,6-difluorophenyl)-6-methyl-2-oxo-1,3-oxazinan-3-yl]-9-oxo-8,17,19-triazatricyclo[14.2.1.0^2,7]nonadeca-1(18),2,4,6,12,16(19)-hexaen-5-yl]carbamate, TFA salt]"

# Tested on: not given
# Assay: not given
# Conditions: from C=CCCC(=O)Nc1cc(NC(=O)OC)ccc1-c1cn(COCC[Si](C)(C)C)c([C@H](CC=C)NC(=O)OC(C)(C)C)n1; rcm bond; 13-membered ring; 1.5 h
row,Compound,"ring closure, yield after HPLC"
1,COC(=O)Nc1ccc2c(c1)NC(=O)CC/C=C/C[C@H](NC(=O)OC(C)(C)C)c1nc-2cn1COCC[Si](C)(C)C,42%

# Tested on: not given
# Assay: not given
# Conditions: from C=CC[C@H](NC(=O)OC(C)(C)C)c1cc(-c2ccc(NC(=O)OC)cc2NC(=O)C(C)C=C)ccn1; rcm bond; 12-membered ring; Grubbs II (0.1 eq)/pTsOH; DCM; 4.0 mM; 40.0 °C
row,Compound,"ring closure, isolated yield"
1,"COC(=O)Nc1ccc2c(c1)NC(=O)C(C)C=CC[C@H](NC(=O)OC(C)(C)C)c1cc-2ccn1 (single isomer, unassigned; diastereomer a)",25%

# Same assay, conditions: from C=CC[C@H](NC(=O)OC(C)(C)C)c1cc(-c2ccc(NC(=O)OC)cc2NC(=O)C(C)C=C)cnc1F; rcm bond; 12-membered ring; Grubbs II (0.4 eq), microwave; DCE; 17.3 mM; 120.0 °C
row,Compound,"ring closure, isolated yield"
1,COC(=O)Nc1ccc2c(c1)NC(=O)C(C)/C=C/C[C@H](NC(=O)OC(C)(C)C)c1cc-2cnc1F (stereo partly shown),68%

# Same assay, conditions: from C=CC[C@H](NC(=O)OC(C)(C)C)c1nc(-c2ccc(NC(=O)OC)cc2N(C(=O)C(F)(F)F)[C@H](CC=C)C(=O)OC)cn1COCC[Si](C)(C)C; rcm bond; 12-membered ring; Grubbs II (0.03 eq); DCE; 37.7 mM; 85.0 °C; 16.0 h
row,Compound,"ring closure, isolated yield"
1,COC(=O)Nc1ccc2c(c1)N(C(=O)C(F)(F)F)[C@@H](C(=O)OC)CC=CC[C@H](NC(=O)OC(C)(C)C)c1nc-2cn1COCC[Si](C)(C)C,29%

# Same assay, conditions: from C=CC[C@H](NC(=O)OC(C)(C)C)c1nc(-c2ccc(NC(=O)OC)cc2NC(=O)[C@H](C)C=C)cn1COCC[Si](C)(C)C; rcm bond; 12-membered ring; Grubbs II (0.4 eq)/pTsOH; DCM; 9.7 mM; 40.0 °C
row,Compound,"ring closure, isolated yield"
1,COC(=O)Nc1ccc2c(c1)NC(=O)[C@H](C)/C=C/C[C@H](NC(=O)OC(C)(C)C)c1nc-2cn1COCC[Si](C)(C)C,41%

# Same assay, conditions: from C=CC[C@H](NC(=O)OC(C)(C)C)c1nc(-c2ccc(NC(=O)OC)cc2N[C@H](CC=C)C(=O)OC)cn1COCC[Si](C)(C)C; rcm bond; 12-membered ring; Grubbs II (0.4 eq), microwave; DCE; 40.0 mM; 120.0 °C
row,Compound,"ring closure, isolated yield"
1,COC(=O)Nc1ccc2c(c1)N[C@@H](C(=O)OC)C/C=C/C[C@H](NC(=O)OC(C)(C)C)c1nc-2cn1COCC[Si](C)(C)C,23%
